Assay results from patent US6995143B2, “Macrolides with antibacterial activity” (Basilea Pharmaceutica AG, priority 2002, dated 2006).
≈ marks a conversion by molar mass, not a printed value.

What was measured:
Assay type in all cases: cell-based
[1] = test system: Escherichia coli ATCC 25922; test: MIC, standard microdilution technique
Method in brief: (§1)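 Susceptibility testing used the NCCLS fifth-edition approved standard for aerobic organisms (M7-A5).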

[2] = test system: Staphylococcus aureus 1086; test: MIC, standard microdilution technique
Method in brief: as §1

[3] = test system: Staphylococcus aureus 745; test: MIC, standard microdilution technique
Method in brief: as §1

[4] = test system: Staphylococcus aureus ATCC 29213; test: MIC, standard microdilution technique
Method in brief: as §1

[5] = test system: Streptococcus pneumoniae 12288; test: MIC, standard microdilution technique
Method in brief: as §1

[6] = test system: Streptococcus pneumoniae SL199T; test: MIC, standard microdilution technique
Method in brief: as §1

[7] = test system: Streptococcus pneumoniae l/l; test: MIC, standard microdilution technique
Method in brief: as §1

[8] = test system: Streptococcus pneumoniae ¼; test: MIC, standard microdilution technique
Method in brief: as §1

[9] = test system: Haemophilus influenzae 12214; test: MIC, standard agar dilution method using HTM medium
Method in brief: (§2)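 The reported MIC comes from dilution testing done to NCCLS guidance M7-A5. Organism: Haemophilus influenzae.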

[10] = test system: Haemophilus influenzae B1501; test: as above
Method in brief: as §2

[11] = test system: Haemophilus influenzae QK12/87; test: as above
Method in brief: as §2

[12] = test system: Haemophilus influenzae QK50; test: as above
Method in brief: as §2

For `CC[C@H]1OC(=O)[C@H](C)C(=O)[C@H](C)[C@@H](O[C@@H]2O[C@H](C)C[C@H](N(C)C)[C@H]2O)[C@](C)(OC)C[C@@H](C)C(=O)[C@H](C)[C@H]2[C@@H](SCC(=O)NCc3ncc[nH]3)C(=O)O[C@@]21C` [Example 35], the “minimum inhibitory concentration (MIC), Strain D” value [1] was greater than 32 µg/mL, the “minimum inhibitory concentration (MIC), Strain B” value [2] was 8 µg/mL (≈ 10.2 µM) and the “minimum inhibitory concentration (MIC), Strain C” value [3] was greater than 32 µg/mL. The “minimum inhibitory concentration (MIC), Strain A” value [4] was 8 µg/mL (≈ 10.2 µM), the “minimum inhibitory concentration (MIC), Strain H” value [5] was greater than 32 µg/mL and the “minimum inhibitory concentration (MIC), Strain G” value [6] was 16 µg/mL (≈ 20.5 µM). For the same molecule, the “minimum inhibitory concentration (MIC), Strain E” value [7] was “<=0.06 μg/ml”, the “minimum inhibitory concentration (MIC), Strain F” value [8] was greater than 32 µg/mL and the “minimum inhibitory concentration (MIC), Strain K” value [9] was 32 µg/mL (≈ 41 µM). The “minimum inhibitory concentration (MIC), Strain M” value [10] was 16 µg/mL (≈ 20.5 µM), the “minimum inhibitory concentration (MIC), Strain I” value [11] was 16 µg/mL (≈ 20.5 µM) and the “minimum inhibitory concentration (MIC), Strain L” value [12] was 16 µg/mL (≈ 20.5 µM).
With `CC[C@H]1OC(=O)[C@H](C)C(=O)[C@H](C)[C@@H](O[C@@H]2O[C@H](C)C[C@H](N(C)C)[C@H]2O)[C@](C)(OC)C[C@@H](C)C(=O)[C@H](C)[C@H]2[C@@H](SCC(=O)Nc3ccc4ccccc4n3)C(=O)O[C@@]21C` [Example 37] the “minimum inhibitory concentration (MIC), Strain D” value [1] was greater than 32 µg/mL, the “minimum inhibitory concentration (MIC), Strain B” value [2] was “<=0.06 μg/ml” and the “minimum inhibitory concentration (MIC), Strain C” value [3] was greater than 32 µg/mL. For the same molecule, the “minimum inhibitory concentration (MIC), Strain A” value [4] was 0.125 µg/mL (≈ 0.151 µM), the “minimum inhibitory concentration (MIC), Strain H” value [5] was greater than 32 µg/mL and the “minimum inhibitory concentration (MIC), Strain G” value [6] was greater than 32 µg/mL. For the same molecule, the “minimum inhibitory concentration (MIC), Strain E” value [7] was “<=0.06 μg/ml”, the “minimum inhibitory concentration (MIC), Strain F” value [8] was 4 µg/mL (≈ 4.83 µM) and the “minimum inhibitory concentration (MIC), Strain K” value [9] was 16 µg/mL (≈ 19.3 µM). For the same molecule, the “minimum inhibitory concentration (MIC), Strain M” value [10] was 8 µg/mL (≈ 9.66 µM), the “minimum inhibitory concentration (MIC), Strain I” value [11] was 8 µg/mL (≈ 9.66 µM) and the “minimum inhibitory concentration (MIC), Strain L” value [12] was 8 µg/mL (≈ 9.66 µM).
In the case of `CC[C@H]1OC(=O)[C@H](C)C(=O)[C@H](C)[C@@H](O[C@@H]2O[C@H](C)C[C@H](N(C)C)[C@H]2O)[C@](C)(OC)C[C@@H](C)C(=O)[C@H](C)[C@H]2[C@@H](SCC(=O)Nc3ccc4ncccc4c3)C(=O)O[C@@]21C` [Example 38], the “minimum inhibitory concentration (MIC), Strain D” value [1] is reported as greater than 32 µg/mL, the “minimum inhibitory concentration (MIC), Strain B” value [2] is reported as “<=0.06 μg/ml” and the “minimum inhibitory concentration (MIC), Strain C” value [3] is reported as greater than 32 µg/mL. The “minimum inhibitory concentration (MIC), Strain A” value [4] was “<=0.06 μg/ml”, the “minimum inhibitory concentration (MIC), Strain H” value [5] was 32 µg/mL (≈ 38.6 µM) and the “minimum inhibitory concentration (MIC), Strain G” value [6] was 8 µg/mL (≈ 9.66 µM). For the same molecule, the “minimum inhibitory concentration (MIC), Strain E” value [7] was “<=0.06 μg/ml”, the “minimum inhibitory concentration (MIC), Strain F” value [8] was 4 µg/mL (≈ 4.83 µM) and the “minimum inhibitory concentration (MIC), Strain K” value [9] was 16 µg/mL (≈ 19.3 µM). The “minimum inhibitory concentration (MIC), Strain M” value [10] was 8 µg/mL (≈ 9.66 µM), the “minimum inhibitory concentration (MIC), Strain I” value [11] was 8 µg/mL (≈ 9.66 µM) and the “minimum inhibitory concentration (MIC), Strain L” value [12] was 16 µg/mL (≈ 19.3 µM).
With `CC[C@H]1OC(=O)[C@H](C)C(=O)[C@H](C)[C@@H](O[C@@H]2O[C@H](C)C[C@H](N(C)C)[C@H]2O)[C@](C)(OC)C[C@@H](C)C(=O)[C@H](C)[C@H]2[C@@H](SCC(=O)Nc3cnc4ccccc4c3)C(=O)O[C@@]21C` [Example 39] the “minimum inhibitory concentration (MIC), Strain D” value [1] was greater than 32 µg/mL, the “minimum inhibitory concentration (MIC), Strain B” value [2] was “<=0.06 μg/ml” and the “minimum inhibitory concentration (MIC), Strain C” value [3] was greater than 32 µg/mL. For the same molecule, the “minimum inhibitory concentration (MIC), Strain A” value [4] was “<=0.06 μg/ml”, the “minimum inhibitory concentration (MIC), Strain H” value [5] was 32 µg/mL (≈ 38.6 µM) and the “minimum inhibitory concentration (MIC), Strain G” value [6] was 8 µg/mL (≈ 9.66 µM). The “minimum inhibitory concentration (MIC), Strain E” value [7] was “<=0.06 μg/ml”, the “minimum inhibitory concentration (MIC), Strain F” value [8] was 32 µg/mL (≈ 38.6 µM) and the “minimum inhibitory concentration (MIC), Strain K” value [9] was 16 µg/mL (≈ 19.3 µM). For the same molecule, the “minimum inhibitory concentration (MIC), Strain M” value [10] was 8 µg/mL (≈ 9.66 µM), the “minimum inhibitory concentration (MIC), Strain I” value [11] was 16 µg/mL (≈ 19.3 µM) and the “minimum inhibitory concentration (MIC), Strain L” value [12] was 16 µg/mL (≈ 19.3 µM).
In the case of `CC[C@H]1OC(=O)[C@H](C)C(=O)[C@H](C)[C@@H](O[C@@H]2O[C@H](C)C[C@H](N(C)C)[C@H]2O)[C@](C)(OC)C[C@@H](C)C(=O)[C@H](C)[C@H]2[C@@H](SCC(=O)Nc3cccc4cnccc34)C(=O)O[C@@]21C` [Example 40], the “minimum inhibitory concentration (MIC), Strain D” value [1] is reported as greater than 32 µg/mL, the “minimum inhibitory concentration (MIC), Strain B” value [2] is reported as 0.125 µg/mL (≈ 0.151 µM) and the “minimum inhibitory concentration (MIC), Strain C” value [3] is reported as greater than 32 µg/mL. The “minimum inhibitory concentration (MIC), Strain A” value [4] was 0.125 µg/mL (≈ 0.151 µM), the “minimum inhibitory concentration (MIC), Strain H” value [5] was 4 µg/mL (≈ 4.83 µM) and the “minimum inhibitory concentration (MIC), Strain G” value [6] was 0.5 µg/mL (≈ 0.604 µM). For the same molecule, the “minimum inhibitory concentration (MIC), Strain E” value [7] was “<=0.06 μg/ml”, the “minimum inhibitory concentration (MIC), Strain F” value [8] was 0.125 µg/mL (≈ 0.151 µM) and the “minimum inhibitory concentration (MIC), Strain K” value [9] was 4 µg/mL (≈ 4.83 µM). The “minimum inhibitory concentration (MIC), Strain M” value [10] was 4 µg/mL (≈ 4.83 µM), the “minimum inhibitory concentration (MIC), Strain I” value [11] was 4 µg/mL (≈ 4.83 µM) and the “minimum inhibitory concentration (MIC), Strain L” value [12] was 4 µg/mL (≈ 4.83 µM).
With `CC[C@H]1OC(=O)[C@H](C)C(=O)[C@H](C)[C@@H](O[C@@H]2O[C@H](C)C[C@H](N(C)C)[C@H]2O)[C@](C)(OC)C[C@@H](C)C(=O)[C@H](C)[C@H]2[C@@H](SCCC(=O)Nc3ccc4ncccc4c3)C(=O)O[C@@]21C` [Example 41] the “minimum inhibitory concentration (MIC), Strain D” value [1] was greater than 32 µg/mL, the “minimum inhibitory concentration (MIC), Strain B” value [2] was “<=0.06 μg/ml” and the “minimum inhibitory concentration (MIC), Strain C” value [3] was greater than 32 µg/mL. For the same molecule, the “minimum inhibitory concentration (MIC), Strain A” value [4] was “<=0.06 μg/ml”, the “minimum inhibitory concentration (MIC), Strain H” value [5] was greater than 32 µg/mL and the “minimum inhibitory concentration (MIC), Strain G” value [6] was 8 µg/mL (≈ 9.5 µM). For the same molecule, the “minimum inhibitory concentration (MIC), Strain E” value [7] was “<=0.06 μg/ml”, the “minimum inhibitory concentration (MIC), Strain F” value [8] was 16 µg/mL (≈ 19 µM) and the “minimum inhibitory concentration (MIC), Strain K” value [9] was 8 µg/mL (≈ 9.5 µM). The “minimum inhibitory concentration (MIC), Strain M” value [10] was 8 µg/mL (≈ 9.5 µM), the “minimum inhibitory concentration (MIC), Strain I” value [11] was 8 µg/mL (≈ 9.5 µM) and the “minimum inhibitory concentration (MIC), Strain L” value [12] was 16 µg/mL (≈ 19 µM).
In the case of `CC[C@H]1OC(=O)[C@H](C)C(=O)[C@H](C)[C@@H](O[C@@H]2O[C@H](C)C[C@H](N(C)C)[C@H]2O)[C@](C)(OC)C[C@@H](C)C(=O)[C@H](C)[C@H]2[C@@H](S(=O)(=O)CCNC(=O)c3ccc4nonc4c3)C(=O)O[C@@]21C` [Example 44], the “minimum inhibitory concentration (MIC), Strain D” value [1] is reported as greater than 32 µg/mL, the “minimum inhibitory concentration (MIC), Strain B” value [2] is reported as 0.125 µg/mL (≈ 0.145 µM) and the “minimum inhibitory concentration (MIC), Strain C” value [3] is reported as greater than 32 µg/mL. The “minimum inhibitory concentration (MIC), Strain A” value [4] was 0.5 µg/mL (≈ 0.578 µM), the “minimum inhibitory concentration (MIC), Strain H” value [5] was greater than 32 µg/mL and the “minimum inhibitory concentration (MIC), Strain G” value [6] was 16 µg/mL (≈ 18.5 µM). The “minimum inhibitory concentration (MIC), Strain E” value [7] was “<=0.06 μg/ml”, the “minimum inhibitory concentration (MIC), Strain F” value [8] was “<=0.06 μg/ml” and the “minimum inhibitory concentration (MIC), Strain K” value [9] was 16 µg/mL (≈ 18.5 µM). The “minimum inhibitory concentration (MIC), Strain M” value [10] was 8 µg/mL (≈ 9.25 µM), the “minimum inhibitory concentration (MIC), Strain I” value [11] was 16 µg/mL (≈ 18.5 µM) and the “minimum inhibitory concentration (MIC), Strain L” value [12] was 16 µg/mL (≈ 18.5 µM).
In the case of `CC[C@H]1OC(=O)[C@H](C)C(=O)[C@H](C)[C@@H](O[C@@H]2O[C@H](C)C[C@H](N(C)C)[C@H]2O)[C@](C)(OC)C[C@@H](C)C(=O)[C@H](C)[C@H]2[C@@H](SCC(=O)c3ccc(OC)cc3OC)C(=O)O[C@@]21C` [Example 45], the “minimum inhibitory concentration (MIC), Strain D” value [1] is reported as greater than 32 µg/mL, the “minimum inhibitory concentration (MIC), Strain B” value [2] is reported as 0.25 µg/mL (≈ 0.304 µM) and the “minimum inhibitory concentration (MIC), Strain C” value [3] is reported as greater than 32 µg/mL. For the same molecule, the “minimum inhibitory concentration (MIC), Strain A” value [4] was 0.25 µg/mL (≈ 0.304 µM), the “minimum inhibitory concentration (MIC), Strain H” value [5] was greater than 32 µg/mL and the “minimum inhibitory concentration (MIC), Strain G” value [6] was 16 µg/mL (≈ 19.5 µM). For the same molecule, the “minimum inhibitory concentration (MIC), Strain E” value [7] was “<=0.06 μg/ml”, the “minimum inhibitory concentration (MIC), Strain F” value [8] was 0.5 µg/mL (≈ 0.608 µM) and the “minimum inhibitory concentration (MIC), Strain K” value [9] was 8 µg/mL (≈ 9.73 µM). The “minimum inhibitory concentration (MIC), Strain M” value [10] was 4 µg/mL (≈ 4.87 µM), the “minimum inhibitory concentration (MIC), Strain I” value [11] was 8 µg/mL (≈ 9.73 µM) and the “minimum inhibitory concentration (MIC), Strain L” value [12] was 8 µg/mL (≈ 9.73 µM).
